These are literature values, as cited in patent US8383585B2, “Biomarkers for cardiodiabetes” (IKFE Institut fur Klinische Forschung und Entwicklung GmbH, priority 2008, dated 2013).

Among the test systems are intact proinsulin; hsCRP; adiponectin.
Common to all, as to set-up: key: ↑: An up arrow indicates an increase in biomarker levels; ↓: a down arrow indicates a decrease; ◯: “O” indicates substantially no change
What all share (settings): effect on biomarker level in a subject

As to `CN(C)C(=N)N=C(N)N` [metformin], the intact proinsulin result in the data set with intact proinsulin was “↓”. Further, in the data set on hsCRP, the hsCRP entry is given as “◯”. Besides, the adiponectin entry in the data set with adiponectin is recorded as “↑”.
As to insulin, the intact proinsulin entry in the data set with intact proinsulin is “↓”. Moreover, in the data set on hsCRP, the hsCRP entry was “◯”. For the same molecule, the adiponectin result in the data set with adiponectin is “◯”.
